How the values were obtained:
Assay type in all cases: cell-based
DU145 = experiment: In vitro soft agar colony forming growth assay; conditions: Homo sapiens, DU-145, 168 h, one week
Protocol: (§1) The Soft Agar Assay for Colony Formation is considered the most stringent assay for detecting malignant transformation of cells. In this assay the cells are cultured in medium with low percentage of agar.
(§2) An exemplary procedure for the assay follows.

LNCaP = experiment: In vitro soft agar colony forming growth assay; conditions: Homo sapiens, 168 h, one week
Protocol: as §1, §2

MCF-7 = experiment: In vitro soft agar colony forming growth assay; conditions: Homo sapiens, MCF7, 168 h; MCF-7, soft agar, one week
Protocol: as §1, §2

MDAMB231 = experiment: In vitro soft agar colony forming growth assay; conditions: Homo sapiens, MDA-MB-231, 168 h; MDAMB231, soft agar, one week; read-out: IC 50
Protocol: as §1, §2

PC3 = experiment: In vitro soft agar colony forming growth assay; conditions: Homo sapiens, PC-3, 168 h, one week
Protocol: as §1, §2

T47D = experiment: In vitro soft agar colony forming growth assay; conditions: Homo sapiens, 168 h, one week
Protocol: as §1, §2

[1] = test system: breast cancer cells MDA MB 231; experiment: In vitro 3D primary sphere forming stem cell assay
Protocol: (§3) This assay measures the ability of cancer stem cells to form spheres in a serum free media where the spheres are in a suspended form. Through this assay we evaluated the potency of the compounds of the invention to kill cancer stem cells in comparison with the known chemotherapeutic agent Cisplatin.
(§4) An exemplary procedure for the assay follows. Cells were grown in three dimensions on a plastic substrate, harvested in suspension in serum-free media, then the cells in the sample were trypsinized and a single cell suspension was formed by passing through a cell strainer. The cells were diluted according to the predetermined plating efficiency for the cell line being studied by suspending the cells in stem cell culture medium. 100 uL of this suspension was added into each well of a 96 well suspension plate, and the plate was incubated at 37 degrees Celsius in 5% CO2 atmosphere for 24 hours, then 2 uL of appropriate concentrations of the compounds of the invention and cisplatin were added into each respective well along with 100 uL of stem cell culture medium, and the plates were incubated at 37 degrees Celsius under 5% CO2 atmosphere for 72 hours. 2.5 uL of the compounds of the invention and cisplatin were added to each respective well along with 50 uL of stem cell culture medium and then the plates were incubated at 37 degrees Celsius under 5% CO2 atmosphere for 72 hours. 3 uL of appropriate concentrations of the compounds of the invention and cisplatin were added to each respective well along with 50 uL of stem cell culture medium and then the plates were incubated at 37 degrees Celsius under 5% CO2 atmosphere for 72 hours, then the spheres formed were observed under a microscope then counted and scored by size.
(§5) Results of the in vitro 3D sphere forming stem cell assay are set forth in a tabular manner. The number in each box is the total number of spheres formed in the presence of either cisplatin or compound I-2 or compound I-3 at each drug concentration. GC refers to a growth control performed in the absence of drug or solvent (DMSO). GCD refers to a growth control performed in the absence of drug, but in the presence of DMSO.

breast cancer cells T47D = experiment: In vitro 3D primary sphere forming stem cell assay
Protocol: as §3, §4, §5

[2] = test system: prostate cancer cells DU145; experiment: In vitro 3D primary sphere forming stem cell assay
Protocol: as §3, §4, §5

[3] = test system: prostate cancer cells LNCaP; experiment: In vitro 3D primary sphere forming stem cell assay
Protocol: as §3, §4, §5

[4] = test system: prostate cancer cells PC3; experiment: In vitro 3D primary sphere forming stem cell assay
Protocol: as §3, §4, §5

For `COc1cc2c(OC3OCC(OC)C(OC)C3O)c3c(c(-c4ccc5c(c4)OCO5)c2cc1OC)C(=O)OC3` (stereo not drawn) [I-2], the IC50 (DU145) was 3160 nM, the IC50 (LNCaP) was 700 nM and the IC50 (MCF-7) was 620 nM. For the same compound, the IC50 (MDAMB231) was 3630 nM, the IC50 (PC3) was 260 nM and the IC50 (T47D) was 2390 nM. For the same compound, the “numbers of primary spheres formed, compared with cisplatin” value (“numbers … compared with cisplatin” below) ([1]; MDA MB 231) was “significantly less”, the “# of 3D Primary Spheres Formed of Cells MDA MB231 (±SD)” value ([1]; final conc. 0.125 μM) was 60(±9) and the “# of 3D Primary Spheres Formed of Cells MDA MB231 (±SD)” value ([1]; final conc. 1.25 μM) was 32(±5). The “# of 3D Primary Spheres Formed of Cells MDA MB231 (±SD)” value ([1]; final conc. 12.5 μM) was 14(±2), the “# of 3D Primary Spheres Formed of Cells MDA MB231 (±SD)” value ([1]; final conc. 125 μM) was 0(±0) and the “# of 3D Primary Spheres Formed of Cells MDA MB231 (±SD)” value ([1]; final conc. 1250 μM) was 0(±0). For the same compound, the “numbers … compared with cisplatin” value (breast cancer cells T47D; T47D) was “significantly less”, the “# of 3D Primary Spheres Formed of Cells T47D (±SD)” value (breast cancer cells T47D; final conc. 0.125 μM) was 84(±8) and the “# of 3D Primary Spheres Formed of Cells T47D (±SD)” value (breast cancer cells T47D; final conc. 1.25 μM) was 34(±5). For the same compound, the “# of 3D Primary Spheres Formed of Cells T47D (±SD)” value (breast cancer cells T47D; final conc. 12.5 μM) was 28(±7), the “# of 3D Primary Spheres Formed of Cells T47D (±SD)” value (breast cancer cells T47D; final conc. 125 μM) was 14(±4) and the “# of 3D Primary Spheres Formed of Cells T47D (±SD)” value (breast cancer cells T47D; final conc. 1250 μM) was 0(±0). For the same compound, the “numbers … compared with cisplatin” value ([2]; DU145) was “significantly less”, the “# of 3D Primary Spheres Formed of Cells DU145 (±SD)” value ([2]; final conc. 0.125 μM) was 53(±5) and the “# of 3D Primary Spheres Formed of Cells DU145 (±SD)” value ([2]; final conc. 1.25 μM) was 41(±4). The “# of 3D Primary Spheres Formed of Cells DU145 (±SD)” value ([2]; final conc. 12.5 μM) was 18(±7), the “# of 3D Primary Spheres Formed of Cells DU145 (±SD)” value ([2]; final conc. 125 μM) was 7(±1) and the “# of 3D Primary Spheres Formed of Cells DU145 (±SD)” value ([2]; final conc. 1250 μM) was 0(±0). For the same compound, the “numbers … compared with cisplatin” value ([3]; LNCaP) was “significantly less”, the “# of 3D Primary Spheres Formed of Cells LNCaP (±SD)” value ([3]; final conc. 0.125 μM) was 98(±17) and the “# of 3D Primary Spheres Formed of Cells LNCaP (±SD)” value ([3]; final conc. 1.25 μM) was 49(±6). For the same compound, the “# of 3D Primary Spheres Formed of Cells LNCaP (±SD)” value ([3]; final conc. 12.5 μM) was 6(±2), the “# of 3D Primary Spheres Formed of Cells LNCaP (±SD)” value ([3]; final conc. 125 μM) was 0(±0) and the “# of 3D Primary Spheres Formed of Cells LNCaP (±SD)” value ([3]; final conc. 1250 μM) was 0(±0). For the same compound, the “numbers … compared with cisplatin” value ([4]; PC3) was “significantly less”, the “# of 3D Primary Spheres Formed of Cells PC3 (±SD)” value ([4]; final conc. 0.125 μM) was 81(±9) and the “# of 3D Primary Spheres Formed of Cells PC3 (±SD)” value ([4]; final conc. 1.25 μM) was 69(±3). For the same compound, the “# of 3D Primary Spheres Formed of Cells PC3 (±SD)” value ([4]; final conc. 12.5 μM) was 63(±8), the “# of 3D Primary Spheres Formed of Cells PC3 (±SD)” value ([4]; final conc. 125 μM) was 31(±6) and the “# of 3D Primary Spheres Formed of Cells PC3 (±SD)” value ([4]; final conc. 1250 μM) was 0(±0).

— patent US20150328245A1, “Agents for Eliminating Tumour-Initiating Cells” (priority 2012, published 2015)
